Source: ChEMBL document CHEMBL1201862, “PubChem BioAssay data set” (2004)
The source made the active and inactive calls.

What was measured:
Kallikrein-7 = Kallikrein-7 (Homo sapiens, UniProt P49862); assay: Fluorescence Intensity-based biochemical primary high throughput dose response assay to identify activators of kallikrein-7 (K7) zymogen.
[1] = molecular target: Voltage-gated inwardly rectifying potassium channel KCNH2 (Homo sapiens, UniProt Q12809); assay: hERG protection from proarrhythmic block, potency, dose response, cell-based, thallium flux (AID 2121); format: ADME
[2] = molecular target: Luciferin 4-monooxygenase (Photinus pyralis, UniProt P08659); assay: Counter Screen for Luciferase-based Assay Positives. [Related pubchem assays: 620, 618, 411 ]
HT-1080 = assay: cytotoxicity in HT1080 fibrosarcoma cells, cell-based, fluorescence readout (AID 620); format: functional; details: Homo sapiens
[3] = system: Streptococcus sp. 'group A'; assay: growth inhibition of control SK(-) GAS strain, dose response, counter-screen for streptokinase expression inhibitor project, luminescence, kanamycin, BacTiterGlo, confirmation (AID 1900); format: functional, organism-based
Streptokinase A = molecular target: T1, Streptokinase A (Streptococcus pyogenes serotype M1, UniProt P10520); assay: S. pyogenes streptokinase expression inhibitors, potency, dose response, plasminogen activation absorbance, OD405 (AID 1914); format: functional, Streptococcus pyogenes M1 GAS;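 also: secreted streptokinase activity via plasminogen activation per viability signal from cell pellet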
T1 sequence (P10520 whole entry): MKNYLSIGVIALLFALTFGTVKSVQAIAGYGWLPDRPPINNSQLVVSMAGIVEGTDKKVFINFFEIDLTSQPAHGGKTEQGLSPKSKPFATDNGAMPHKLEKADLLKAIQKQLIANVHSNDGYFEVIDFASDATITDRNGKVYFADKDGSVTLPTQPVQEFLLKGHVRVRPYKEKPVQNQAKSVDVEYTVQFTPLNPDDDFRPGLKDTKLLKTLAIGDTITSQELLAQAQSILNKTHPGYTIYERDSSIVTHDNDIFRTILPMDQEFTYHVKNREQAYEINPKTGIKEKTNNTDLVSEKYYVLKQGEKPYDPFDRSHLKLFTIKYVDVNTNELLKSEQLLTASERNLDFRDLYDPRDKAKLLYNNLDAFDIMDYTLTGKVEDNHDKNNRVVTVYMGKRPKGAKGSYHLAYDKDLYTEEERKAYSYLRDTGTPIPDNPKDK

Streptococcus = assay: Group A Streptococcus viability loss, dose response, counter-screen for streptokinase expression inhibitor project, luminescence, BacTiterGlo (AID 1915); format: functional, organism-based;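 also: potency for reduction of bacterial viability or growth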
[4] = molecular target: Eukaryotic translation initiation factor 4E (Mus musculus, UniProt P63073); assay: eIF4E–eIF4G protein interaction inhibitors, dose response, biochemical, TR-FRET (AID 855); format: functional;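 also: potency for disrupting eIF4E binding to eIF4GI seen as loss of FRET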
[5] = Counterscreen for IDE inhibitors: Luminescence-based cell-based high throughput dose response assay to identify compounds that are cytotoxic to HEK cells. [Related pubchem assays: 434962 (Primary screen (IDE inhibitors in singlicate)), 449730 (Counterscreen (Cytotoxicity in triplicate)), 435028 (Confirmation (IDE inhibitors in triplicate)) …; format: functional; details: HEK293
Insulin-degrading enzyme = molecular target: T2, Insulin-degrading enzyme (Homo sapiens, UniProt P14735); assay: Dose Response: Fluorescence polarization-based cell-based high throughput dose response assay for inhibitors of insulin-degrading enzyme (IDE). [Related pubchem assays: 434962 (Primary screen (IDE inhibitors in singlicate)), 449730 (Counterscreen (Cytotoxicity in triplicate)), 435028 (Confirmation (IDE inhibitors in triplicate)), 434984 (Summary …; format: functional
T2 sequence (P14735 whole entry): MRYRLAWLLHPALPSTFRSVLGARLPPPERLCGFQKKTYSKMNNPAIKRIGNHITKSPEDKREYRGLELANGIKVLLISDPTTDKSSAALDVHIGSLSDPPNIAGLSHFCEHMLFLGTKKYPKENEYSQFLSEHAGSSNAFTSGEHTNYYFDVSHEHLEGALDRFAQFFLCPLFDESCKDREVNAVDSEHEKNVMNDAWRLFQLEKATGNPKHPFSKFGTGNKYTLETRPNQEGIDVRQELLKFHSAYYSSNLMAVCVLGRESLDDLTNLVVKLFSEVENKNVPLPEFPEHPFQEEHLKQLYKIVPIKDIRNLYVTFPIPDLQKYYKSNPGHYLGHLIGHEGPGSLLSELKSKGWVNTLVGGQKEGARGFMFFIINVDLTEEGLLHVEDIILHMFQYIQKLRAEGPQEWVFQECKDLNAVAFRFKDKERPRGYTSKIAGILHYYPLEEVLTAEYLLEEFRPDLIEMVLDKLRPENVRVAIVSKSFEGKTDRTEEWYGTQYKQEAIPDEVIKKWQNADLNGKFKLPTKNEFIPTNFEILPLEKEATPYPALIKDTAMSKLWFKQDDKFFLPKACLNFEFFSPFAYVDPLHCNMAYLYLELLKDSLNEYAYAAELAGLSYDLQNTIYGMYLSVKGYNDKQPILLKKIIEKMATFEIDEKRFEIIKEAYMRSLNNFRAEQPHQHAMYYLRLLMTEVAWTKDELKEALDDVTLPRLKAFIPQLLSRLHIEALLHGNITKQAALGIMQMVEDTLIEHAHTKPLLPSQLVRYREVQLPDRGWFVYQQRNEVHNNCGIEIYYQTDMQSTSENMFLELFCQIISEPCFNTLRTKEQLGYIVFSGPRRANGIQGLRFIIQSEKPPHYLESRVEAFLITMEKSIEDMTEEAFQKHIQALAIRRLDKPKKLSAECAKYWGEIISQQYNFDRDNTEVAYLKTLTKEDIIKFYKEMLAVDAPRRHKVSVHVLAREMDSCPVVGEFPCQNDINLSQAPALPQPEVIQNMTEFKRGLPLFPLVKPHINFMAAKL

[6] = ADAM10 inhibitors, peptide cleavage, dose response, biochemical, QFRET (AID 743254);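 also: ADAM10 enzyme with the DM2 quenched FRET peptide as substrate; EDANS fluorescence gain as the protease cuts the substrate; inhibitor potency against ADAM10 proteolytic activity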
[7] = molecular target: Disintegrin and metalloproteinase domain-containing protein 17 (Homo sapiens, UniProt P78536); assay: ADAM17 protease inhibitors, dose response, counter-screen for ADAM10 exosite inhibitor project, biochemical, quenched FRET substrate (AID 743253)
[8] = molecular target: T3, Polyadenylate-binding protein 1 (Homo sapiens, UniProt P11940); assay: PABP1 MLLE–PAM2 interaction inhibitors, dose response, miRNA deadenylation inhibitor project, biochemical, fluorescence polarization, Cy5-PAM2 peptide, secondary (AID 602260); format: functional; details: read-out: IC50_Mean
[9] = molecular target: T3, Polyadenylate-binding protein 1; assay: PABP1 MLLE–PAM2 binding inhibitor potency, dose response, biochemical, fluorescence polarization, FITC-PAM2 peptide (AID 602259); format: functional; details: read-out: IC50_Mean
Prothrombin = Prothrombin (Homo sapiens, UniProt P00734); assay: Thrombin 1536 HTS Dose Response Confirmation. [Related pubchem assays: 1046 (Thrombin 1536 HTS; hits were confirmed in this assay)]; format: functional
[10] = molecular target: DNA dC->dU-editing enzyme APOBEC-3G (Homo sapiens, UniProt Q9HC16); assay: Dose Response confirmation of small molecule APOBEC3G DNA Deaminase Inhibitors via a fluorescence-based single-stranded DNA deaminase assay. [Related pubchem assays (depositor defined):AID493012, AID493028]; format: functional
Paired box protein Pax-8 = Paired box protein Pax-8 (Homo sapiens, UniProt Q06710); assay: inhibitors of PAX8-driven TPO luciferase reporter, dose response, RMG-I cells, cherry-pick (AID 687027); format: functional, cell-based;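 also: luciferase reporter driven by Pax8 target thyroperoxidase promoter measured by SteadyGlo luminescence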
[11] = NIH:OVCAR-3 ovarian cancer cell cytotoxicity, dose response, PAX8 inhibitor project, plate reader, dry powder samples (AID 743044); format: functional, cell-based
[12] = IGROV1 ovarian cancer cell cytotoxicity, dose response, PAX8 inhibitor project, plate reader, dry powder samples (AID 743043); format: functional, cell-based; details: IGROV-1
[13] = cytotoxicity in OVCAR8 ovarian cancer cells, dose response, PAX8 project, cell-based, plate reader, dry powder samples (AID 743197); format: functional; details: OVCAR-8
[14] = P. falciparum 3D7-ScDHODH growth inhibitors, dose response, SYBR Green, dry powder samples (AID 1159570); format: functional, cell-based;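 also: parasite growth measured after 72 hours of compound exposure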
[15] = HepG2 cell cytotoxicity, dose response, cytotoxicity control, plate reader, dry powder samples (AID 1159569); format: functional, cell-based;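 also: inhibitor potency with signal falling toward the positive control level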
[16] = P. falciparum Dd2 growth inhibitors, dose response, SYBR Green, cherry-picked samples (AID 1159567); format: functional, cell-based
[17] = P. falciparum Dd2 growth inhibitors, dose response, SYBR Green, dry powder samples (AID 1159566); format: functional, cell-based;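 also: potency for growth inhibition with lower SYBR green DNA signal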
[18] = P. falciparum ATP4 D1247Y mutant growth inhibitors, dose response, NITD609-resistant line, SYBR Green, dry powder (AID 1159571); format: functional, cell-based;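 also: parasites synchronized at ring stage by sorbitol before testing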
HEK293 [19] = assay: cells; details: Homo sapiens
HEK293 [20] = assay: cells; details: Homo sapiens; remark: listed apart in the source
[21] = IOSE-T80 ovarian epithelial cell cytotoxicity, dose response, cytotoxicity control for PAX8 inhibitor project, plate reader, dry powder samples (AID 743045); format: functional, cell-based
[22] = A2780 ovarian cancer cell cytotoxicity, dose response, cytotoxicity control, plate reader, dry powder samples (AID 743046); format: functional, cell-based
Cytochrome P450 2C19 = Cytochrome P450 2C19 (Homo sapiens, UniProt P33261); assay: Cytochrome panel assay with activity outcomes. Panel member name: p450-cyp2c19 Compounds with AC50 equal or less than 10 uM are considered active; format: functional; details: read-out: AC50
[23] = Concentration-dependent survival of SW480 colon cancer line, luminescence detection with CellTiter-Glo, half-maximal inhibitory concentration (AID 1117338); format: functional
[24] = RKO cell viability reduction, dose response, CellTiter-Glo luminescence (AID 1117322); format: functional
[25] = cytotoxicity toward HCT116 cells – cell-based, CellTiter-Glo luminescence, IC50, dose response (AID 1117332); format: functional; details: HCT-116
[26] = SNU-C1 cell viability reduction, dose response, CellTiter-Glo luminescence (AID 1117323); format: functional, cell-based
[27] = cytotoxicity toward Colo320 cells – cell-based, CellTiter-Glo luminescence, IC50, dose response (AID 1117334); format: functional; details: COLO 320
[28] = cytotoxicity toward HT-29 cells – cell-based, CellTiter-Glo luminescence, IC50, dose response (AID 1117330); format: functional
[29] = CellTiter-Glo luminescent dose response of DLD-1 viability loss (AID 1117352); format: functional

Sequence of Disintegrin and metalloproteinase domain-containing protein 17 (P78536 whole entry, the tested form may be a part): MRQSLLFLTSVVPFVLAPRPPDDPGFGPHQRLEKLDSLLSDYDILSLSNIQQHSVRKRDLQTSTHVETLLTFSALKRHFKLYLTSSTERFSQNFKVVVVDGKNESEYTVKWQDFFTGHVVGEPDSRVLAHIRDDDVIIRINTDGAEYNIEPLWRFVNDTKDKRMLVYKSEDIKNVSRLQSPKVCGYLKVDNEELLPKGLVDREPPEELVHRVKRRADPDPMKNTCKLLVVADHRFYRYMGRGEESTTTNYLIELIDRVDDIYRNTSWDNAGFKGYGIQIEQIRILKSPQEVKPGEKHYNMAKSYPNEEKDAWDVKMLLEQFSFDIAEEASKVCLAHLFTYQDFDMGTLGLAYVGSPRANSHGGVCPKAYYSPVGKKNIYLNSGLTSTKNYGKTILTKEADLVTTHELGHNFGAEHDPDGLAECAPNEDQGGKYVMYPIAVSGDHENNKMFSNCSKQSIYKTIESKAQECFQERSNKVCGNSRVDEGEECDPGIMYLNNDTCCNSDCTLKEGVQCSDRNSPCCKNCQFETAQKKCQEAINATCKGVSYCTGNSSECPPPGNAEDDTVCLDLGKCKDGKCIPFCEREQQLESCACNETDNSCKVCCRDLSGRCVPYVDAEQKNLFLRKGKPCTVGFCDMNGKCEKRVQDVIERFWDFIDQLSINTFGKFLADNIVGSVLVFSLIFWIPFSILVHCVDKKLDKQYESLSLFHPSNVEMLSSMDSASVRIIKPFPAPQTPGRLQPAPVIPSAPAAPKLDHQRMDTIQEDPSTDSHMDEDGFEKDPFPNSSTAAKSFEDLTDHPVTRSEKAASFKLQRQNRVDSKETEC
Sequence of Voltage-gated inwardly rectifying potassium channel KCNH2 (Q12809 whole entry): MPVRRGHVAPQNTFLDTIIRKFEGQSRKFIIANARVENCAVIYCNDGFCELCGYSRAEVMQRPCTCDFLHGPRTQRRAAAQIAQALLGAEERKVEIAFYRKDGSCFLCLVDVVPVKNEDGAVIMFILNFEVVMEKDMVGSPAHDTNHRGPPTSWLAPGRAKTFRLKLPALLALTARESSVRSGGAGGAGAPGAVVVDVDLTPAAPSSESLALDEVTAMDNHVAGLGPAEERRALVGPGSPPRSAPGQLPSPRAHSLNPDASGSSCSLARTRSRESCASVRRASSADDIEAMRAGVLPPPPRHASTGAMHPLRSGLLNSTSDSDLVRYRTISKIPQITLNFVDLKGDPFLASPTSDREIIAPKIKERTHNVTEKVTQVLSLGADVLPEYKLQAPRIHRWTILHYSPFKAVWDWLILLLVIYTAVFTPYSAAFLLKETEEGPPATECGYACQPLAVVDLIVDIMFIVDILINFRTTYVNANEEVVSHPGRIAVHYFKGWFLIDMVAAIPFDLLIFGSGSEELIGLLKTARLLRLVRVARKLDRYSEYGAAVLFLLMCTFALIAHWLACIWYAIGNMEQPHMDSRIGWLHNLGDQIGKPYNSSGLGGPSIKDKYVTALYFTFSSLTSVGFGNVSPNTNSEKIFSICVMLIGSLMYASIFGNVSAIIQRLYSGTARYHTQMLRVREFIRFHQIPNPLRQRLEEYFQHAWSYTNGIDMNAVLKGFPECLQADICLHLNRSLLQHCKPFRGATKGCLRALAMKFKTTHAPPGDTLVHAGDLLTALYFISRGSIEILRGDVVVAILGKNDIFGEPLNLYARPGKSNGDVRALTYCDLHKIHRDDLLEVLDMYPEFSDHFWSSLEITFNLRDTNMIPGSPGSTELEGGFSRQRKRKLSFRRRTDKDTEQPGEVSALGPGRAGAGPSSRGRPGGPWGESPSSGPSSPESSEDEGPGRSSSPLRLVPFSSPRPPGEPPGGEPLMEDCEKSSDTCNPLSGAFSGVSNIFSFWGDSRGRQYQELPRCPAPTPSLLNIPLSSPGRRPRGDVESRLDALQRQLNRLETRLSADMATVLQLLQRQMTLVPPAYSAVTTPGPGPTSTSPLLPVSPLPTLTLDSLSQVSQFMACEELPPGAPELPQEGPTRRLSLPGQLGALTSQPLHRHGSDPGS
Sequence of Kallikrein-7 (P49862 whole entry): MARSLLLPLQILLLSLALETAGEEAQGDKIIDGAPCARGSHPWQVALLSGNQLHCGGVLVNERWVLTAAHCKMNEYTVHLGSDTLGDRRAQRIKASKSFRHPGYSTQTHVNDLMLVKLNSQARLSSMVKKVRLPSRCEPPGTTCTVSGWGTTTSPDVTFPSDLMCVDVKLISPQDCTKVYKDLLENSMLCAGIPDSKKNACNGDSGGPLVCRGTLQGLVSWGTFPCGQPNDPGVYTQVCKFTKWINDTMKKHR
Sequence of Luciferin 4-monooxygenase (P08659 whole entry): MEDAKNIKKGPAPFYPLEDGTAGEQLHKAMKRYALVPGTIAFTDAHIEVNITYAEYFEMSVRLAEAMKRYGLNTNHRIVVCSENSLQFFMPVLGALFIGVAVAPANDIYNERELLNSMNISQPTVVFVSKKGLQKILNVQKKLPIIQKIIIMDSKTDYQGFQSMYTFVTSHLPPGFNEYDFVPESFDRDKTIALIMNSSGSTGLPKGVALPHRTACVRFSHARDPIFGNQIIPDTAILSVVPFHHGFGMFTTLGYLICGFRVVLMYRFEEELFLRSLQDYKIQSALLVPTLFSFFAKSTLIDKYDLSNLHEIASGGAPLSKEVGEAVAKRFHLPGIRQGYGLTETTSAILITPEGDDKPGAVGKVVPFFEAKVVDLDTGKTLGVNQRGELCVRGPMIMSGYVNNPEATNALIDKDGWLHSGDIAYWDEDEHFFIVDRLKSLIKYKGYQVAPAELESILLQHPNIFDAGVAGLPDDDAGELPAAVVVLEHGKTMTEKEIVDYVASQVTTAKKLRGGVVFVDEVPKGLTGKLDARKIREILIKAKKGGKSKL
T3 sequence (P11940 whole entry): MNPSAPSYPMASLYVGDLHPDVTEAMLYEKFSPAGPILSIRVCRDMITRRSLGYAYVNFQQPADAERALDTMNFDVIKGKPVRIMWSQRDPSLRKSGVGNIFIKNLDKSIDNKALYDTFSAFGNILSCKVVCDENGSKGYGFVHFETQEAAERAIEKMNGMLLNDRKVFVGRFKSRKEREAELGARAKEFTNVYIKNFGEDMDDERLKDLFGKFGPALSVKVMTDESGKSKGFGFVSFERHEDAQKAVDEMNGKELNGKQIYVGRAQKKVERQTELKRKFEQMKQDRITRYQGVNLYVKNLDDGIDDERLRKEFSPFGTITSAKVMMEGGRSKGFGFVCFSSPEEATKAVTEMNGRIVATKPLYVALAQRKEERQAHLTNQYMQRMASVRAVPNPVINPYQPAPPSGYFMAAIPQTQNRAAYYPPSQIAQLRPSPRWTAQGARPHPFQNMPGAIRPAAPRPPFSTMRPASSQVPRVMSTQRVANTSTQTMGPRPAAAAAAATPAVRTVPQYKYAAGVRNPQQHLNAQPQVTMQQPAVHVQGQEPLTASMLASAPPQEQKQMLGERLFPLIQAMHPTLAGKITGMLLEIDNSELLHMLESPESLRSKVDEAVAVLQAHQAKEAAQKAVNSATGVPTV
Sequence of Paired box protein Pax-8 (Q06710 whole entry): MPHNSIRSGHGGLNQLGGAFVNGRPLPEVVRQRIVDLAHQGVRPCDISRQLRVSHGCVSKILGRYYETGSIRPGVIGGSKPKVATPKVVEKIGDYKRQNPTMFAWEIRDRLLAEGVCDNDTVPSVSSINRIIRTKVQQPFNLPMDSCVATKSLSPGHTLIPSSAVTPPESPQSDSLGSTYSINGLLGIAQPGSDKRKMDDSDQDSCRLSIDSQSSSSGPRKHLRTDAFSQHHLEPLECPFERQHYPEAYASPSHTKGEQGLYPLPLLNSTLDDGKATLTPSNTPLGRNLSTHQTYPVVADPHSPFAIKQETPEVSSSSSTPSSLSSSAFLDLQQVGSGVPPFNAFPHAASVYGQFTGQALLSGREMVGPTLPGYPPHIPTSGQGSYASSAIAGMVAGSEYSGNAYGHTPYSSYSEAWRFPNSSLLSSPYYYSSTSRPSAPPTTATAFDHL
Sequence of Cytochrome P450 2C19 (P33261 whole entry): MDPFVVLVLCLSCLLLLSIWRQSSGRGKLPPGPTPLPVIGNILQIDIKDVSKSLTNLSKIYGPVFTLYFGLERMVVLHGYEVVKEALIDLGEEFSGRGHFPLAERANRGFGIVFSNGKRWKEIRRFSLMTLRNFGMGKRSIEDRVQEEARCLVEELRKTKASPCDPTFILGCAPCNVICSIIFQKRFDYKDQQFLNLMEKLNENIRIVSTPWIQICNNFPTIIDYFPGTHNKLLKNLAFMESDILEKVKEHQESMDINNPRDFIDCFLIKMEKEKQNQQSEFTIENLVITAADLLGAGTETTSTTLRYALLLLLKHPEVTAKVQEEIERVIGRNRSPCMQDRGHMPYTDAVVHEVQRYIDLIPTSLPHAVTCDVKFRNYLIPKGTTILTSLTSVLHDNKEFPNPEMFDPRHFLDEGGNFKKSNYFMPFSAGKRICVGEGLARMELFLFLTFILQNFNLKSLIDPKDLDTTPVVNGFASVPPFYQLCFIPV
Sequence of Eukaryotic translation initiation factor 4E (P63073 whole entry): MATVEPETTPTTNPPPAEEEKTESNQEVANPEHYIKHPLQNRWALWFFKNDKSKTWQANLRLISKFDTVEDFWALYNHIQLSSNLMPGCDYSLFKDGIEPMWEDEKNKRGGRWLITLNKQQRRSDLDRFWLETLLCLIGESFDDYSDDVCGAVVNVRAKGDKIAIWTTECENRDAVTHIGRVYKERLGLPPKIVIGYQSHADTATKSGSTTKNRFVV
Sequence of DNA dC->dU-editing enzyme APOBEC-3G (Q9HC16 whole entry): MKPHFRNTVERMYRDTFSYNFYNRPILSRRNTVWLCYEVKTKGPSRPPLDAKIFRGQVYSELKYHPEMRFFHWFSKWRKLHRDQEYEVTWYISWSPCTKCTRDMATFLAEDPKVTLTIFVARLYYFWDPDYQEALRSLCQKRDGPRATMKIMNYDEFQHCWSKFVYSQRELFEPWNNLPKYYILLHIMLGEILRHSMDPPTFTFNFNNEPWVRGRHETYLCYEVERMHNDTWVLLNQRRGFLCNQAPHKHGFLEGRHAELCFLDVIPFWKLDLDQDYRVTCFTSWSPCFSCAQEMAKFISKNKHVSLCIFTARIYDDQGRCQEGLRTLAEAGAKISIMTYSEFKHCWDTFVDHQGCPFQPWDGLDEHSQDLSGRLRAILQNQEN

SMILES: N=c1c(C(=O)NCC2CCCO2)cc2c(=O)n3ccccc3nc2n1C1CCCC1 (centres undefined)
- EC50 (Kallikrein-7): 24.4 µM (inactive)

SMILES: CCN(CC)C(=S)NC(=O)c1ccc(OC)c(Br)c1
- EC50 [1]: 0.66 µM (active)

SMILES: COC(=O)c1sccc1NS(=O)(=O)c1ccc(F)cc1F
- EC50 [1]: 2.94 µM (active)

SMILES: Cc1ccc(NC(=O)N2CCc3ccccc32)cc1
- EC50 [2]: 0.72 µM (active)
- EC50 (HT-1080): > 50 µM (not active)

SMILES: Nc1ccc2[nH]c(-c3cc(Cl)c(N)c(Cl)c3)nc2c1
- EC50 [3]: 42.8 µM (active)
- EC50 (Streptokinase A): > 150 µM (not active)
- EC50 (Streptococcus): > 150 µM (not active)
- IC50 [4]: > 64 µM (inactive)
- EC50 (Kallikrein-7): > 69.5 µM (inactive)

SMILES: Cc1cccc(C(=O)Nc2ccnc(-c3cccnc3)n2)c1
- IC50 [5]: 35.7 µM (not active)
- IC50 (Insulin-degrading enzyme): 7 µM (active)

SMILES: CC1CCN(c2ccc3c(c2)S(=O)(=O)c2cccc(C(=O)NC4CC4)c2C3=O)CC1
- IC50 [5]: 22.6 µM (not active)
- IC50 (Insulin-degrading enzyme): > 55.9 µM (not active)

SMILES: N#Cc1c(NC(=O)CCn2cnc3ccccc3c2=O)oc(-c2ccccc2)c1-c1ccccc1
- IC50 [6]: > 69.5 µM (inactive)
- IC50 [7]: > 69.5 µM (inactive)

SMILES: O=C(NC(=S)Nc1nc(-c2ccccc2)cs1)c1cncc(Br)c1
- EC50 [1]: 11.2 µM (active)
- IC50 [8]: > 66 µM (inactive)
- IC50 [9]: > 66 µM (inactive)

SMILES: CN(C)S(=O)(=O)c1ccc(C(=O)Oc2cc(O)nc3ccccc23)cc1
- IC50 (Prothrombin): 0.812 µM (active)

SMILES: CCN(CC)c1ccc(NC(=O)COc2ccccc2C)cc1S(=O)(=O)Nc1ccccc1OC
- IC50 [10]: 70.1 µM (active)
- IC50 [6]: > 69.5 µM (inactive)
- IC50 [7]: > 69.5 µM (inactive)

SMILES: CCc1ccccc1N1C(=O)CC(=O)NC1=O
- IC50 (Prothrombin): > 50 µM (not active)

SMILES: C[C@H](CO)N1C[C@H](C)[C@H](CN(C)S(=O)(=O)c2ccc(Cl)cc2)OCc2ccccc2-c2c(n(C)c3ccccc23)C1=O
- AC50 (Paired box protein Pax-8): 4.86 µM (active)
- IC50 [6]: 9.56 µM (active)
- AC50 [11]: 26.2 µM (active)
- AC50 [12]: 62.3 µM (active)
- AC50 [13]: 41.6 µM (active)
- IC50 [7]: > 69.5 µM (inactive)
- AC50 [14]: 0.193 µM (active)
- AC50 [15]: 35.5 µM (active)
- AC50 [16]: < 0.35 µM (active)
- AC50 [17]: 0.0741 µM (active)
- AC50 [18]: 0.129 µM (active)
- EC50 (HEK293 [19]): > 59.7 µM (inactive)
- EC50 (HEK293 [20]): > 59.7 µM (inactive)

SMILES: CC(c1nc2ccccc2[nH]1)n1c(=O)c(-c2cccs2)nc2ccccc21 (centres undefined)
- EC50 (Kallikrein-7): 8.14 µM (active)

SMILES: C[C@H](CO)N1C[C@H](C)[C@@H](CN(C)Cc2ccncc2)Oc2ccc(NC(=O)Nc3ccc(C(F)(F)F)cc3)cc2CC1=O
- AC50 (Paired box protein Pax-8): 5.69 µM (active)
- AC50 [21]: 37.6 µM (active)
- AC50 [22]: 32.5 µM (active)
- AC50 [11]: 22.8 µM (active)
- AC50 [12]: 26.8 µM (active)
- AC50 [13]: > 70 µM (inactive)

SMILES: Cc1oncc1C(=O)Nc1ccc(C(F)(F)F)cc1 [LEFLUNOMIDE]
- EC50 [2]: 0.84 µM (active)
- EC50 (HT-1080): > 50 µM (not active)
- AC50 (Cytochrome P450 2C19): 15.8 µM (inconclusive)

SMILES: NC(=O)N/N=C/c1ccc([N+](=O)[O-])o1 [NITROFURAZONE]
- IC50 [23]: > 20 µM (inactive)
- IC50 [24]: > 20 µM (inactive)
- IC50 [25]: > 20 µM (inactive)
- IC50 [26]: > 20 µM (inactive)
- IC50 [27]: > 20 µM (inactive)
- IC50 [28]: > 20 µM (inactive)
- IC50 [29]: > 20 µM (inactive)
